Drawing on ChEMBL document CHEMBL5303766, “Data for DCP probe FHT-2344” (2022), this text covers delta Tm Staurosporine positive control and ΔTm for two molecules.

Holding throughout (conditions): for ΔTm: Compound concentration 10.0 uM
The target in assay [1] is T1, Mitogen-activated protein kinase kinase kinase 5 (Homo sapiens) (UniProt Q99683).
T1 sequence (whole entry): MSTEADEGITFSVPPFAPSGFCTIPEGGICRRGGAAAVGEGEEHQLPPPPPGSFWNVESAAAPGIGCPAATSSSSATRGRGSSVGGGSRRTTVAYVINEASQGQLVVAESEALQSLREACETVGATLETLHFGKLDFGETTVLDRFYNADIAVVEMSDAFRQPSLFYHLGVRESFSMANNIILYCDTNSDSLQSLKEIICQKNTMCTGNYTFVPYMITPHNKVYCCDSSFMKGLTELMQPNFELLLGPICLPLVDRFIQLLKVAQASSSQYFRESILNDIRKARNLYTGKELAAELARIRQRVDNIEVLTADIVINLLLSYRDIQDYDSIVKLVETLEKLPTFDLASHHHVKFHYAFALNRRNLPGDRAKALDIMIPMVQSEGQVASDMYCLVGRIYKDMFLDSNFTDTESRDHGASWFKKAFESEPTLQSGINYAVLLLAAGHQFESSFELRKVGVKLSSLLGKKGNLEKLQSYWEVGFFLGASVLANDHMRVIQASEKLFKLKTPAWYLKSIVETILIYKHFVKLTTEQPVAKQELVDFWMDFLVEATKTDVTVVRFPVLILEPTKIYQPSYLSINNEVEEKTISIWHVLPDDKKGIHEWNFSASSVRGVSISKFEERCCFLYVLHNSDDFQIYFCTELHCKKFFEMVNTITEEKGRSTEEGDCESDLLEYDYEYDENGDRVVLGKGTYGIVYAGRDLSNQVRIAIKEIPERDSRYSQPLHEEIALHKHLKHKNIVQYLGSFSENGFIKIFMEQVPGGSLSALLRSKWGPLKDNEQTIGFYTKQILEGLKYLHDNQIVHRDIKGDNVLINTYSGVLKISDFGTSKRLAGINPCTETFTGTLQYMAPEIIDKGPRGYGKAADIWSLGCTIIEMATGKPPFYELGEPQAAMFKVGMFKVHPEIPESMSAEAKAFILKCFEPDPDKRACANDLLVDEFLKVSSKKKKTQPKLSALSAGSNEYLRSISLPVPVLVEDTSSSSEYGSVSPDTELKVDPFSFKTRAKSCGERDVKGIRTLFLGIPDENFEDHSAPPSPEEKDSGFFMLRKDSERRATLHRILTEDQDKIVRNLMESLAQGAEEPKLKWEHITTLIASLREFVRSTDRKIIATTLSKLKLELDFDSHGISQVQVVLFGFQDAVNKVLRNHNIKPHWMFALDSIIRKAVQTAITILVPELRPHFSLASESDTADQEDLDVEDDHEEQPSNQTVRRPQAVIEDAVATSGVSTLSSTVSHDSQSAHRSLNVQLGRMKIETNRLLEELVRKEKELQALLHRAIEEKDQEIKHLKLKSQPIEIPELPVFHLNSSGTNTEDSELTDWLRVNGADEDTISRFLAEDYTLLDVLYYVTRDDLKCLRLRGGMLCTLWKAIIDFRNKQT
The assay is described as follows: MAP3K5 SGC Tm panel (DSF).

Assay [2] deals with Serine/threonine-protein kinase Nek7 (Homo sapiens) (UniProt Q8TDX7). The assay is described as follows: NEK7 SGC Tm panel (DSF).
Serine/threonine-protein kinase Nek7 (Homo sapiens), sequence (Q8TDX7 whole entry, looked up): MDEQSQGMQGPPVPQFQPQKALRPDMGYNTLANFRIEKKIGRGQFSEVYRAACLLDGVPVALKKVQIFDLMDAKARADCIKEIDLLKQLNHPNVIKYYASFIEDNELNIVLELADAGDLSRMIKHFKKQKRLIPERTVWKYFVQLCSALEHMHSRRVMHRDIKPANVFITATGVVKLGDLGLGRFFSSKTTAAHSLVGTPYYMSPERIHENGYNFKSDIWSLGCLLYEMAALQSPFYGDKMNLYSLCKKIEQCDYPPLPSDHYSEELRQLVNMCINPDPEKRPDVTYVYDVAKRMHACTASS
In assay [3] the target is Calcium/calmodulin-dependent protein kinase type 1G (Homo sapiens) (UniProt Q96NX5). Put plainly: CAMK1G SGC Tm panel (DSF).
Calcium/calmodulin-dependent protein kinase type 1G (Homo sapiens), sequence (Q96NX5 whole entry): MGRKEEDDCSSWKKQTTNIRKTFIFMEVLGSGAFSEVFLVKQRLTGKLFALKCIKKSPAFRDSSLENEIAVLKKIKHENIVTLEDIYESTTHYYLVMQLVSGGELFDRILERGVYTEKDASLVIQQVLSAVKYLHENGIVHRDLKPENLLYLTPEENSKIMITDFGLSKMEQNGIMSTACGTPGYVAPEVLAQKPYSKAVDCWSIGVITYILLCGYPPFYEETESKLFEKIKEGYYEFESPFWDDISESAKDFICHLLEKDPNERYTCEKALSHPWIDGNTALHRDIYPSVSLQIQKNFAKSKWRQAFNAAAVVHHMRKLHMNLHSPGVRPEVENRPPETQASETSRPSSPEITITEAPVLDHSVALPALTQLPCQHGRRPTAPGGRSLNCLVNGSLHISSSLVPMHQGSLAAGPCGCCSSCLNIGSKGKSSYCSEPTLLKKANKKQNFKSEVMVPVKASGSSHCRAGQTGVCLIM
The target of assay [4] is T2, Serine/threonine-protein kinase ULK3 (Homo sapiens) (UniProt Q6PHR2).
T2 sequence (whole entry): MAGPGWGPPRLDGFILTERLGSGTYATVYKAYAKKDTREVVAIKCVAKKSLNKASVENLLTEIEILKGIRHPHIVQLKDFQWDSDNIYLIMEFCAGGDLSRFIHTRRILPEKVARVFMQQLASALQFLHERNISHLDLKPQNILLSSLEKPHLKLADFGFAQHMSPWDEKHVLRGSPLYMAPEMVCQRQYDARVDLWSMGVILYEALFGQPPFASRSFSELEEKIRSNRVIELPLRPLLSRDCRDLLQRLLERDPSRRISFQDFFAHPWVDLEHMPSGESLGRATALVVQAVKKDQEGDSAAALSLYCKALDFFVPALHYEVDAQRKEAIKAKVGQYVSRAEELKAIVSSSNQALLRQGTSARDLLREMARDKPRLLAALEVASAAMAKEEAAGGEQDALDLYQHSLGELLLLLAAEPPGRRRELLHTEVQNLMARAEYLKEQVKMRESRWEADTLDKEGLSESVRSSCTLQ
The assay is described as follows: ULK3 SGC Tm panel (DSF).

Assay [5] has as its target T3, Dual specificity mitogen-activated protein kinase kinase 7 (Homo sapiens) (UniProt O14733).
T3 sequence (whole entry): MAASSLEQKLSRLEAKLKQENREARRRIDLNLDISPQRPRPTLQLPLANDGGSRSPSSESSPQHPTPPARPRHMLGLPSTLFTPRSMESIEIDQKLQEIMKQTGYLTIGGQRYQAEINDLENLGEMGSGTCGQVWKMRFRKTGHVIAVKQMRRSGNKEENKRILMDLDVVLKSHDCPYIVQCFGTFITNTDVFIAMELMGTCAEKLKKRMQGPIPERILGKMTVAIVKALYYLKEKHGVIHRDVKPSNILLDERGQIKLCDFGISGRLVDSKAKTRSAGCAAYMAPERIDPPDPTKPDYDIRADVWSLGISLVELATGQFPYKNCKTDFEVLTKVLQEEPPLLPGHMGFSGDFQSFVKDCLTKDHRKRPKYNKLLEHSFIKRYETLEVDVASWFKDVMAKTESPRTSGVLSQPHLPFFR
Put plainly: MAP2K7 SGC Tm panel (DSF).

Take `COC[C@H](NC(=O)c1ccn(S(C)(=O)=O)c1)C(=O)Nc1nc(-c2cccc(-c3ccn(C)n3)c2)cs1`: the delta Tm Staurosporine positive control came to 18.1 in assay [1]; 1.29 in assay [2]; 13.3 in assay [3]; 18.2 in assay [4]; 6.68 in assay [5]. Also, the ΔTm is 1.14 in assay [1]; 0.0604 in assay [2]; -0.0351 in assay [3]; 0.301 in assay [4]; 0.168 in assay [5].

On to `C[C@H](NC(=O)c1cn(C2(C#N)CC2)cn1)C(=O)Nc1nc(-c2cccc(-c3ccn(C)n3)c2)cs1`, for which the delta Tm Staurosporine positive control in assay [1] was found to be 18.1; in assay [2], 1.29; in assay [3], 13.3; in assay [4], 18.2; in assay [5], 6.68. Moreover, the ΔTm in assay [1] was 1.17; in assay [2], 0.0219; in assay [3] it was 0.371; in assay [4], 0.155; in assay [5] it was 0.97.
